Assay [1] deals with recombinant human SGK-1 enzyme (Homo sapiens, UniProt O00141). The assay can be described thus: Enzymatic activity assay: SGK-1 substrate peptide phosphorylation (Caliper lab-chip mobility shift). Type of assay: biochemical.
Assay [2] concerns SGK-1 dependent phosphorylation of GSK3beta in U2OS cells. As to the kind of experiment: SGK-1 dependent phosphorylation of GSK3beta in U2OS cells overexpressing recombinant SGK-1 and GSK3beta. Conditions: U2OS cells, 6 h incubation, ratio of phosphorylated GSK3beta to total GSK3beta, read-out: IC50 values for inhibition of SGK-1 dependent phosphorylation of GSK3beta in U2OS cells. It is filed as cell-based, human.

Setting [3] is: peptide substrate 1 μM, ATP 10 μM, 60 min at 37° C., read-out: IC50 values for inhibition of SGK-1 enzymatic activity.

Read-outs that look alike come from different tables or passages of the source.

Chain of recombinant human SGK-1 enzyme (O00141 whole entry, looked up): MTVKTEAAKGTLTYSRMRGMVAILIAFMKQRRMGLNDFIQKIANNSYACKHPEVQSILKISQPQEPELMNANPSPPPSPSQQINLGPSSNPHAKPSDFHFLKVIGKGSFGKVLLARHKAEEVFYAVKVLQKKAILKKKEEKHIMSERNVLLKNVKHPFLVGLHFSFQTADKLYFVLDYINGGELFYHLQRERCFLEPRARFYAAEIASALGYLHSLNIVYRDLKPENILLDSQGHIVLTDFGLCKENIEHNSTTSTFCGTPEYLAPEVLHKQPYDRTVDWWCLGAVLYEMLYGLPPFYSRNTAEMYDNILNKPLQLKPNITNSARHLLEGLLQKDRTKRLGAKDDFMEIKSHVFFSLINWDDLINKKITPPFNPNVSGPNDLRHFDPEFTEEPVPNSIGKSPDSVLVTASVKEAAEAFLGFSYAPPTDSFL

`Cc1n[nH]c2nc(-c3ccc(NS(=O)(=O)c4cc(Cl)ccc4Cl)cc3)ncc12` [Example 1, 2,5-Dichloro-N-[4-(3-methyl-1H-pyrazolo[3,4-d]pyrimidin-6-yl)-phenyl]-benzenesulfonamide]: the IC50 in assay [1] (read-out: IC50 values for inhibition of SGK-1 enzymatic activity, peptide substrate 1 μM, ATP 10 μM, 60 min at 37° C.) was less than 1.2 nM; in assay [2] (Homo sapiens) it was 830 nM.
For the compound `Cc1nc(-c2ccc(NS(=O)(=O)c3cc(Cl)ccc3Cl)cc2)nc2[nH]ncc12` [Example 76], the IC50 in assay [1] (setting [3]) turned out to be 5.7 nM; in assay [2], 3000 nM.
With `O=S(=O)(Nc1ccc(-c2nc(O[C@H]3CC[C@@H](O)CC3)c3cn[nH]c3n2)cc1)c1cc(Cl)ccc1Cl` [Example 80], the IC50 in assay [1] (setting [3]) is less than 1.5 nM; in assay [2] it was 450 nM.
`COCCc1nc(-c2ccc(NS(=O)(=O)c3cc(C)ccc3C#N)cc2)nc2[nH]nc(N)c12` [Example 513]: the results for the IC50 in assay [1] (setting [3]) and in assay [2] were 68 nM and 300 nM, respectively.
Turning to `Cc1ccc(C#N)c(S(=O)(=O)Nc2ccc(-c3nc(OCC4CNCCO4)c4c(C)n[nH]c4n3)cc2)c1` (stereo not drawn) [Example 293], the IC50 in assay [1] (setting [3]) turned out to be 3.2 nM; in assay [2], 630 nM.
For the compound `O=S(=O)(Nc1ccc(-c2nc(OCC3CNCCO3)c3cn[nH]c3n2)cc1)c1cc(F)ccc1F` (stereo not drawn) [Example 311], the IC50 in assay [1] (setting [3]) stood at 240 nM; in assay [2], 92 nM.
On to `NCCCOc1nc(-c2ccc(NS(=O)(=O)c3cc(Cl)ccc3Cl)cc2)nc2[nH]ncc12` [Example 63], for which the IC50 is less than 1.2 nM in assay [1] (setting [3]) and 280 nM in assay [2].
For `COc1ccc(F)c(S(=O)(=O)Nc2ccc(-c3nc(OCC4CNCCO4)c4c(C)n[nH]c4n3)cc2)c1` (stereo not drawn) [Example 295], the IC50 is 2.6 nM in assay [1] (setting [3]) and 25 nM in assay [2].
With `Cc1ccc(C#N)c(S(=O)(=O)Nc2ccc(-c3nc(OC4CNC4)c4cn[nH]c4n3)cc2)c1` [Example 188], the IC50 in assay [1] (setting [3]) is 3.4 nM; in assay [2], 900 nM.
In the case of `Nc1n[nH]c2nc(-c3ccc(NS(=O)(=O)c4cc(Cl)sc4Cl)cc3)nc(C3CC3)c12` [Example 500], the IC50 in assay [1] (setting [3]) stood at 2.7 nM; in assay [2] it was 250 nM.
Regarding `Cc1ccc(F)c(S(=O)(=O)Nc2ccc(-c3nc(C)c4c(N)n[nH]c4n3)cc2)c1` [Example 472], the values for the IC50 in assay [1] (setting [3]) and in assay [2] were 1.5 nM and 330 nM, respectively.
As for `COc1nc(-c2ccc(NS(=O)(=O)c3cc(Cl)ccc3F)cc2)nc2[nH]ncc12` [Example 136], the IC50 in assay [1] (setting [3]) came to 41 nM; in assay [2], 1700 nM.
For `Cc1ccc(C#N)c(S(=O)(=O)Nc2ccc(-c3nc(OCCCN)c4c(C)n[nH]c4n3)cc2)c1` [Example 213], the IC50 in assay [1] (setting [3]) is 6.4 nM; in assay [2], 190 nM.
`Cc1ccc(F)c(S(=O)(=O)Nc2ccc(-c3nc(OC4CCC(O)CC4)c4cn[nH]c4n3)cc2)c1` (stereo not drawn) [Example 92]: the IC50 worked out at 2.1 nM in assay [1] (setting [3]) and 180 nM in assay [2].
Turning to `CC(C)COc1nc(-c2ccc(NS(=O)(=O)c3cccc(Cl)c3F)cc2)nc2[nH]nc(N)c12` [Example 327], the IC50 in assay [1] (setting [3]) amounted to 420 nM; in assay [2], 430 nM.
Turning to `NCCCOc1nc(-c2ccc(NS(=O)(=O)c3cccc(Cl)c3Cl)cc2)nc2[nH]ncc12` [Example 64], the IC50 in assay [1] (setting [3]) was determined as 4.2 nM; in assay [2] it was 560 nM.
The matching figures for `CC(C)(CO)COc1nc(-c2ccc(NS(=O)(=O)c3cc(Cl)ccc3F)cc2)nc2[nH]ncc12` [Example 57]: 8.3 nM and 500 nM.
Regarding `Cc1nc(-c2ccc(NS(=O)(=O)C3=CSCC=C3Br)cc2)nc2[nH]nc(N)c12` [Example 173], the values for the IC50 in assay [1] (setting [3]) and in assay [2] were 330 nM and 600 nM, respectively.
For the compound `Cc1ccc(C#N)c(S(=O)(=O)Nc2ccc(-c3nc(OCC(F)(F)F)c4c(N)n[nH]c4n3)cc2)c1` [Example 193], the IC50 is 2 nM in assay [1] (setting [3]) and 160 nM in assay [2].
`COc1ccc(Cl)c(S(=O)(=O)Nc2ccc(-c3nc(OC)c4cn[nH]c4n3)cc2)c1` [Example 143]: the IC50 was found to be 10 nM in assay [1] (setting [3]) and 100 nM in assay [2].
Consider `O=S(=O)(Nc1ccc(-c2nc(OC3CCC(O)C3)c3cn[nH]c3n2)cc1)c1cc(Cl)ccc1Cl` (stereo not drawn) [Example 60], for which the IC50 in assay [1] (setting [3]) is 4 nM; in assay [2], 480 nM.

What is called IC50 is the midpoint of a concentration-inhibition curve.
